What was measured:
[1] = test system: Mycobacterium tuberculosis; test: Antitubercular activity against actively growing Mycobacterium tuberculosis H37Rv by microplate alamar blue assay; type: functional
[2] = test system: Mycobacterium tuberculosis; test: Antitubercular activity against non-replicating Mycobacterium tuberculosis H37Rv by LORA; type: functional
Vero = test: Cytotoxicity against Vero cells after 3 days; type: cell-based; details: Chlorocebus sabaeus, 72 h

Structure (SMILES) | MIC [1] [µM] | MIC [2] [µM] | IC50 (Vero) [µM]
CC(CN1c2ccccc2Sc2ccccc21)[N+](C)(C)Cc1ccc([N+](=O)[O-])cc1 (stereo unspecified) | 20.7 | > 128 | 
C[N+](C)(CCCN1c2ccccc2Sc2ccc(Cl)cc21)Cc1cccc(Cl)c1 | 4.5 | 6.7 | > 128
C[N+](C)(CCCN1c2ccccc2Sc2ccc(Cl)cc21)Cc1ccc(Cl)cc1 | 6.06 | 6.7 | > 128
C[N+](C)(CCCN1c2ccccc2Sc2ccccc21)Cc1ccccc1Cl | 14.3 | 24.6 | 
C[N+](C)(CCCN1c2ccccc2Sc2ccccc21)Cc1ccc(Cl)cc1 | 9.31 | 15.4 | > 64
C[N+](C)(CCCN1c2ccccc2Sc2ccc(C(F)(F)F)cc21)Cc1ccc(Cl)cc1 | 3.81 | 6.1 | > 128
C[N+](C)(CCCN1c2ccccc2Sc2ccc(C(F)(F)F)cc21)Cc1cccc(Cl)c1 | 3.8 | 5.8 | > 128
C[N+](C)(CCCN1c2ccccc2Sc2ccccc21)Cc1ccc(F)cc1 | 14.6 | 32.9 | 
COc1ccc(C[N+](C)(C)C(C)CN2c3ccccc3Sc3ccccc32)cc1 (stereo unspecified) | 14.4 | 105 | 
C[N+](C)(CCCN1c2ccccc2Sc2ccc(C(F)(F)F)cc21)Cc1ccc(F)cc1 | 6.4 | 10 | > 128
C[N+](C)(CCCN1c2ccccc2Sc2ccc(C(F)(F)F)cc21)Cc1ccccc1Cl | 7.3 | 7.5 | > 128
C[N+](C)(CCCN1c2ccccc2Sc2ccc(Cl)cc21)Cc1ccc(F)cc1 | 7.6 | 13.7 | > 128
Cc1ccc(C[N+](C)(C)C(C)CN2c3ccccc3Sc3ccccc32)cc1 (stereo unspecified) | 12.1 | 34.7 | 
C[N+](C)(CCCN1c2ccccc2Sc2ccc(Cl)cc21)Cc1ccc([N+](=O)[O-])cc1 | 12.3 | 27.5 | 
COc1ccc(C[N+](C)(C)CCCN2c3ccccc3Sc3ccc(Cl)cc32)cc1 | 8.5 | 11.9 | > 128
Cc1ccc(C[N+](C)(C)CCCN2c3ccccc3Sc3ccc(Cl)cc32)cc1 | 4.7 | 7.5 | > 128
C[N+](C)(CCCN1c2ccccc2Sc2ccc(Cl)cc21)Cc1ccccc1 | 7.33 | 11.1 | > 128
Cc1ccc(C[N+](C)(C)CCCN2c3ccccc3Sc3ccc(C(F)(F)F)cc32)cc1 | 6.8 | 6.9 | > 128
CC(CN1c2ccccc2Sc2ccccc21)[N+](C)(C)Cc1ccccc1 (stereo unspecified) | 31.6 | 99.7 | 
C[N+](C)(CCCN1c2ccccc2Sc2ccccc21)Cc1cccc(Cl)c1 | 7.5 | 13 | > 128
C[N+](C)(CCCN1c2ccccc2Sc2ccc(Cl)cc21)Cc1ccccc1Cl | 5.6 | 7.6 | > 128
Cc1ccc(C[N+](C)(C)CCCN2c3ccccc3Sc3ccccc32)cc1 | 9.9 | 15 | > 128
C=CC[N+](C)(C)CCCN1c2ccccc2Sc2ccc(Cl)cc21 | 30.6 | 106 | 

From ChEMBL document CHEMBL1139075, “Synthesis and antitubercular activity of quaternized promazine and promethazine derivatives” (Bioorg Med Chem Lett, 2007)
